US20220202912A1, “Polypeptides in Preparation of Drugs for Treatment or Prevention of Rheumatoid Arthritis” (priority 2011, published 2022)
Marks after values point to notes of the source that are not given here. Where no end group is shown, it is not given here.

What was measured:
AIA rat models = assay: adjuvant-induced arthritis (AIA) rat models; type: in vivo, SD rats; details: for therapeutic effect on adjuvant-induced arthritis in rats (conclusion): rat, in vivo
CIA mouse models = assay: collagen-induced arthritis (CIA) mouse models; type: in vivo, DBA/1 mice; details: for therapeutic effect on collagen-induced arthritis in mice (conclusion): mouse, in vivo
[1] = tested on: tumor in BALB/c nude mice; assay: in vivo pharmacodynamics (antitumor) of PEG-modified HM-3 in BALB/c nude mice; details: BALB/c nude mice
From the text: Four different types of mPEG-ALD and mPEG-SC with different molecular weights are selected to modify the polypeptide […](named HM-3), i.e., mPEG-ALD5k, mPEG-ALD10k, mPEG-SC10k, mPEG-SC20k, and modification reaction conditions are explored and optimized.

IL-1β = IL-1β production by mouse peritoneal macrophages (LPS, ELISA); type: cell-based, C57BL/6 mice; details: 50 μmoL/L, LPS 5 μg/mL, 48 h
Experimental: In the test, mice are divided into […], namely a blank control group, a lipopolysaccharide (LPS) model group, a dexamethasone group, and mPEG-SC20k-HM-3 groups at different doses (0.56, 1.12, 2.25, 4.50, 9.00 μmol/L).
(1) IL-1 production: mice are intraperitoneally injected with 1 mL of broth medium (containing 6% of starch). After three days, mouse peritoneal macrophages are taken aseptically and washed twice with RPMI 1640 medium, and the cell concentration is adjusted to 2×10^6 cells/mL. The cells are injected into a 24-well culture plate, 1 mL per well, and the cells are incubated in a cell incubator for 3 h, and vibrated once every 30 min to make the cells fully adhere. Then the cells are washed twice with culture solution to remove non-adherent cells, are cultured continuously for 48 h after administration, and are centrifuged at 1000 r for 15 min. The supernatant is collected as a sample with IL-1β to be tested. (2) Determination of IL-1 content: various solutions are prepared; tested samples and standard substances with different concentrations (100 μL/well) are added into the corresponding wells, reaction wells are sealed with plate-sealing adhesive tape, and incubation is performed at 37° C. for 90 min; the plate is washed four times; biotinylated antibody working solution (100 μL/well) is added, the reaction wells are sealed with plate-sealing adhesive tape, and incubation is performed at 37° C. for 60 min; the plate is washed four times; enzyme conjugate working solution (100 μL/well) is added, the reaction wells are sealed with plate-sealing adhesive tape, and incubation is performed at 37° C. for 30 min; the plate is washed four times; chromogenic reagent (100 μL/well) is added, and incubation is performed at 37° C. for 10-20 min in the absence of light; stop solution (100 μL/well) is added, and the OD 450 nm absorbance is measured immediately after uniform mixing (within 5 min).

cotton ball granuloma = type: in vivo, SD rats; details: day 8; 5 mg/kg sc once a day (Dexamethasone, G2)
Experimental: The rats are randomly divided into a model control group, a positive control (dexamethasone) group, and mPEG-SC20k-HM-3 groups using subcutaneous injection at a high dose, a medium dose and a low dose, a total of 5 groups, and the drugs are administered to each group of animals by subcutaneous injection, for 7 days in succession.
Rats in each group are anesthetized with pentobarbital sodium (40 mg/kg) by intraperitoneal injection, and the abdominal coat is cut off. The skin in the middle of the lower abdomen is cut open under aseptic condition, and the incision is about 1 cm long. The subcutaneous tissue is expanded by vascular forceps, and 30 mg of sterile dry cotton balls (weighed accurately by an electronic balance before the test, and undergoing conventional autoclaving and drying for later use) are implanted hypodermically into the groin on one side. The incision is sutured, and an appropriate amount of amoxicillin is sprinkled on the incision to prevent infection.
The drug is administered on the same day after surgery, and is administered for 7 days in succession. On day 8, the rats are killed by cervical dislocation, the cotton balls are removed surgically, the fat tissue is removed, and the […] at 60° C. The mass of granuloma is expressed in mg (granulomatoma)/100 g (body weight). The granuloma mass difference between each administration group and the model control group is compared, and the inhibition rate is calculated. Data statistical analysis is performed on significant differences between the groups.
Inhibition rate (%)=(average granuloma mass of model control group−average granuloma mass of administration group)/average granuloma mass of model control group×100%.

[2] = high dose 0.4 mg/kg twice a day, 10 days
[3] = low dose 0.1 mg/kg twice a day, 10 days
[4] = medium dose 0.2 mg/kg twice a day, 10 days
[5] = high dose 0.8 mg/kg twice a day, 10 days
[6] = low dose 0.2 mg/kg twice a day, 10 days
[7] = medium dose 0.4 mg/kg twice a day, 10 days
[8] = Table 2, methotrexate 1 mg/kg, once every 5 days, three times
[9] = Tables 4 and 6, methotrexate 1 mg/kg
[10] = Table 1, methotrexate 1 mg/kg, once every 5 days, three times
[11] = Tables 3 and 5, methotrexate 1 mg/kg
[12] = high dose 1.6 mg/kg three times a day, 10 days
[13] = low dose 0.4 mg/kg three times a day, 10 days
[14] = medium dose 0.8 mg/kg three times a day, 10 days
[15] = high dose 3.2 mg/kg twice a day, 10 days
[16] = low dose 0.8 mg/kg twice a day, 10 days (polypeptide II)
[17] = medium dose 1.6 mg/kg twice a day, 10 days

## ACDCRGDCFCGGGGIVRRADRAAVP (cysteine pairing not given here) [polypeptide I, No. 1]
AIA rat models; [2]
  clinical scoring: 6.0 ± 1.2
  swelling of left paw: 4.77 ± 0.95 mm
  swelling of right paw: 1.25 ± 0.30 mm
AIA rat models; [3]
  clinical scoring: 5.7 ± 1.1
  swelling of left paw: 4.27 ± 0.85 mm
  swelling of right paw: 1.18 ± 0.31 mm
AIA rat models; [4]
  clinical scoring: 5.3 ± 1.0
  swelling of left paw: 3.81 ± 0.76 mm
  swelling of right paw: 0.79 ± 0.18 mm
AIA rat models
  therapeutic effect on adjuvant-induced arthritis in rats (conclusion): CONCLUSION: polypeptide I has therapeutic effect on adjuvant-induced arthritis in rats
CIA mouse models; [5]
  clinical scoring: 10.4 ± 1.6
  swelling of joints: 1.05 ± 0.31 mm
  swelling of paws: 1.29 ± 0.26 mm
CIA mouse models; [6]
  clinical scoring: 9.7 ± 1.5
  swelling of joints: 0.93 ± 0.23 mm
  swelling of paws: 1.10 ± 0.22 mm
CIA mouse models; [7]
  clinical scoring: 9.1 ± 1.4
  swelling of joints: 0.76 ± 0.17 mm
  swelling of paws: 0.92 ± 0.18 mm
CIA mouse models
  therapeutic effect on collagen-induced arthritis in mice (conclusion): CONCLUSION: polypeptide I has therapeutic effect on collagen-induced arthritis in mice

## CC(=O)O[C@H]1C(=O)[C@@]2(C)[C@H]([C@H](OC(=O)c3ccccc3)[C@]3(O)C[C@H](OC(=O)[C@H](O)[C@@H](NC(=O)c4ccccc4)c4ccccc4)C(C)=C1C3(C)C)[C@]1(OC(C)=O)CO[C@@H]1C[C@@H]2O [paclitaxel, reference compound]
[1]
  antitumor effect in vivo: 44.50%

## CN(Cc1cnc2nc(N)nc(N)c2n1)c1ccc(C(=O)N[C@@H](CCC(=O)O)C(=O)O)cc1 [positive control, methotrexate, reference compound]
AIA rat models; [8]
  clinical scoring: 5.0 ± 1.0
  swelling of left paw: 3.60 ± 0.72 mm
  swelling of right paw: 0.68 ± 0.19 mm
AIA rat models; [9]
  clinical scoring: 4.00 ± 0.00
  swelling of left paw: 3.23 ± 1.20 mm
  swelling of right paw: 0.13 ± 0.33 mm
CIA mouse models; [10]
  clinical scoring: 8.1 ± 1.2
  swelling of joints: 0.76 ± 0.17 mm
  swelling of paws: 0.95 ± 0.19 mm
CIA mouse models; [11]
  clinical scoring: 2.33 ± 2.73
  swelling of joints: −0.19 mm
  swelling of paws: 0.21 ± 0.45 mm

## IVRRADRAAVPGGGGRGD [polypeptide II, No. 2]
AIA rat models; [12]
  clinical scoring: 7.29 ± 3.40
  swelling of left paw: 4.98 ± 1.97 mm
  swelling of right paw: 1.97 ± 1.56 mm
AIA rat models; [13]
  clinical scoring: 8.29 ± 4.86
  swelling of left paw: 5.03 ± 1.99 mm
  swelling of right paw: 1.56 ± 1.66 mm
AIA rat models; [14]
  clinical scoring: 6.57 ± 4.24
  swelling of left paw: 4.50 ± 1.95 mm
  swelling of right paw: 1.63 ± 1.57 mm
AIA rat models
  therapeutic effect on adjuvant-induced arthritis in rats (conclusion): CONCLUSION: polypeptide II has therapeutic effect on adjuvant-induced arthritis, and its effect is higher than that of polypeptide I.
[1]
  antitumor effect in vivo: 43.92%
CIA mouse models; [15]
  clinical scoring: 2.67 ± 2.34
  swelling of joints: −0.18 mm
  swelling of paws: 0.23 ± 0.35 mm
CIA mouse models; [16]
  clinical scoring: 2.33 ± 3.14
  swelling of joints: −0.19 mm
  swelling of paws: 0.13 ± 0.28 mm
CIA mouse models; [17]
  clinical scoring: 5.83 ± 2.93
  swelling of joints: 0.35 mm
  swelling of paws: 0.45 ± 0.41 mm
CIA mouse models
  therapeutic effect on collagen-induced arthritis in mice (conclusion): CONCLUSION: polypeptide II has therapeutic effect on collagen-induced arthritis in mice

## C[C@@H]1C[C@H]2[C@@H]3CCC4=CC(=O)C=C[C@]4(C)[C@@]3(F)[C@@H](O)C[C@]2(C)[C@@]1(O)C(=O)CO [Dexamethasone, reference compound]
IL-1β
  IL-1β content: 208.19 ± 13.78 pg/mL
IL-1β; Mus musculus, Peritoneal macrophage, read-out: Inhibition rate
  inhibition at 50 µM: 79%
Cotton ball granuloma
  Inhibition rate of cotton ball granuloma: 61.59** %
  cotton ball granuloma: 0.11 ± 0.04 mg(cotton ball granuloma)/100 g(weight)
